Results as given in the supplement of paper PMC8671470.

Tests used:
Settings in all cases: 72 h
[1] = test system: myeloid leukemia patient primary cells Pat.3; test: cell viability (% survival relative to DMSO control); higher = less cytotoxic
Summary of the method: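 Thawed mononuclear cells from AML or CML patients were purified on Ficoll and cultured for 72 h in RPMI 1640 with 10% FBS, at 10,000 cells/well, on 384-well plates carrying 70 pre-printed compounds at 1–10,000 nM in five tenfold steps, in duplicate. Viability came from CellTiter-Glo, normalised against DMSO and against 10 μM proteasome inhibitor. Any area under the curve given was derived from log-logistic curve fits in the drc and PharmacoGx R packages, and these fits had four parameters.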

[2] = test system: myeloid leukemia patient primary cells Pat.10; test: area under dose-response curve (viability, 1 nM-10 uM) (fraction (0-1)); higher = more sensitive
Protocol: (§1)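 AUC (0–1, higher = more sensitive) of the 5-point dose–response (1 nM–10 µM, 72 h, CellTiter-Glo) in primary AML/CML patient mononuclear cells. 0.030103 is the floor for inactive compounds.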

[3] = test system: myeloid leukemia patient primary cells Pat.1; test: as above
Protocol: as §1

[4] = test system: myeloid leukemia patient primary cells Pat.13; test: as above
Protocol: as §1

[5] = test system: myeloid leukemia patient primary cells Pat.15; test: as above
Protocol: as §1

[6] = test system: myeloid leukemia patient primary cells Pat.5; test: as above
Protocol: as §1

[7] = test system: myeloid leukemia patient primary cells Pat.2; test: as above
Protocol: as §1

[8] = test system: myeloid leukemia patient primary cells Pat.12; test: as above
Protocol: as §1

[9] = test system: myeloid leukemia patient primary cells Pat.8; test: as above
Protocol: as §1

[10] = test system: myeloid leukemia patient primary cells Pat.4; test: as above
Protocol: as §1

[11] = test system: myeloid leukemia patient primary cells Pat.7; test: as above
Protocol: as §1

[12] = test system: myeloid leukemia patient primary cells Pat.11; test: as above
Protocol: as §1

[13] = test system: myeloid leukemia patient primary cells Pat.6; test: as above
Protocol: as §1

[14] = test system: myeloid leukemia patient primary cells Pat.3; test: as above
Protocol: as §1

[15] = test system: myeloid leukemia patient primary cells Pat.9; test: as above
Protocol: as §1

[16] = test system: myeloid leukemia patient primary cells Pat.14; test: as above
Protocol: as §1

MV4-11 = test: cell viability (% survival relative to DMSO control); higher = less cytotoxic
Protocol: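 8x8 drug-combination matrices (0–5000 nM; rosiglitazone and lestaurtinib 0–1000 nM) were run in MV4-11 cells for 72 h with CellTiter-Glo read-out. Survival is normalised to DMSO and 10 µM bortezomib and clipped at 100%.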

O=C(C1CC1)N1CC[C@@H](C=C2NNC(=O)N2c2ccc(-c3ccc4occc4c3)cc2)C1
[1]
Settings | cell viability [%]
1 nM | 93.5
10 nM | > 100
100 nM | 84.2
1000 nM | 78.8
10000 nM | 77.1

Settings | area under dose-response curve
[2] | 0.082
[3] | < 0.0301
[4] | < 0.0301
[5] | < 0.0301
[6] | 0.292
[7] | < 0.0301
[8] | < 0.0301
[9] | < 0.0301
[10] | < 0.0301
[11] | < 0.0301
[12] | < 0.0301
[13] | < 0.0301
[14] | < 0.0301
[15] | 0.235
[16] | < 0.0301

C[C@H](NC(=O)c1sccc1OCc1ccc(Cl)cc1)c1ccccc1
[1]
Settings | cell viability [%]
1 nM | 91.3
10 nM | 83.9
100 nM | 96.3
1000 nM | 96.2
10000 nM | 1.02

Settings | area under dose-response curve
[2] | 0.13
[3] | 0.0329
[4] | 0.0406
[5] | < 0.0301
[6] | 0.338
[7] | 0.0349
[8] | < 0.0301
[9] | < 0.0301
[10] | 0.0955
[11] | 0.253
[12] | < 0.0301
[13] | 0.0893
[14] | 0.124
[15] | 0.195
[16] | 0.121

O=C(C1CC1)N1CC[C@@H](C=C2NNC(=O)N2c2ccc(-c3ccc4occc4c3)cc2)C1 + CS(=O)(=O)N1CCN(Cc2cc3nc(-c4cccc5[nH]ncc45)nc(N4CCOCC4)c3s2)CC1 [Pictilisib]
cell viability [%], MV4-11
Settings | drug1 concentration 5 nM | drug1 concentration 10 nM | drug1 concentration 50 nM | drug1 concentration 100 nM | drug1 concentration 500 nM | drug1 concentration 1000 nM | drug1 concentration 5000 nM
drug2 concentration 5 nM | > 100 | 91.3 | > 100 | 89.5 | > 100 | 76.8 | > 100
drug2 concentration 10 nM | > 100 | 89.1 | > 100 | 91.9 | 72 | 94.3 | > 100
drug2 concentration 50 nM | > 100 | 99.9 | 94.2 | 92 | 93.5 | > 100 | 56.5
drug2 concentration 100 nM | 89.5 | 96.8 | 99.6 | > 100 | > 100 | 94.6 | > 100
drug2 concentration 500 nM | > 100 | 95.5 | > 100 | 94 | 94.4 | 94.2 | 80.3
drug2 concentration 1000 nM | 91.9 | 71.7 | 87.8 | 80.5 | 87.1 | > 100 | 74.8
drug2 concentration 5000 nM | 76.5 | 49.4 | 58.1 | 68.8 | 69.9 | 44.4 | 55.6

O=C(C1CC1)N1CC[C@@H](C=C2NNC(=O)N2c2ccc(-c3ccc4occc4c3)cc2)C1 + C[C@H](NC(=O)c1sccc1OCc1ccc(Cl)cc1)c1ccccc1 [as1949490]
cell viability [%], MV4-11
Settings | drug1 concentration 5 nM | drug1 concentration 10 nM | drug1 concentration 50 nM | drug1 concentration 100 nM | drug1 concentration 500 nM | drug1 concentration 1000 nM | drug1 concentration 5000 nM
drug2 concentration 5 nM | > 100 | > 100 | > 100 | 83.1 | > 100 | 96.5 | > 100
drug2 concentration 10 nM | > 100 | > 100 | > 100 | > 100 | > 100 | > 100 | > 100
drug2 concentration 50 nM | > 100 | 99 | > 100 | > 100 | > 100 | > 100 | > 100
drug2 concentration 100 nM | > 100 | 80.4 | > 100 | 92.8 | 92.2 | > 100 | 98.4
drug2 concentration 500 nM | > 100 | 96.5 | > 100 | > 100 | > 100 | 93.8 | > 100
drug2 concentration 1000 nM | > 100 | > 100 | 98 | 89.7 | 86.3 | > 100 | 61.8
drug2 concentration 5000 nM | 77.3 | 85.6 | 71.7 | 79.5 | 62 | 58.4 | 72
